pIC50: −log10 of the molar value.

This is an account of results in patent US11384069B2, “Diphenylaminopyrimidine compound for inhibiting kinase activity” (Shenzhen TargetRx, Inc., priority 2018, dated 2022).

Data set [1] deals with BaF3-EpoR-JAK2/V617F cells. The experiment in a line: Cytotoxicity assay, BaF3-EpoR-JAK2/V617F cells (CellTiter-Glo). It is filed as cell-based. To be noted: 72 h; 3 days incubation, 1 ng/ml IL-3, CellTiter-Glo. The protocol: Assay method: 1. Preparation of cell plates. […] The cell plates were placed in a carbon dioxide incubator for overnight culture. 2. The test compounds were dissolved in DMSO and subjected to 3-fold gradient dilution, 9 compound concentrations were obtained in duplicate. 3. Treatments of Cells with Compounds. The compounds were transferred to cell plates, and the starting concentration of the compounds is 10 μM. The cell plates were incubated in a carbon dioxide incubator for 3 days. 4. Detection. A CellTiter-Glo reagent was added to the cell plates and incubated for 30 minutes at room temperature to stabilize the luminescence signal. Reading was obtained using a PerkinElmer Envision multi-label analyzer.
A general note: ATP-based viability assays read luminescence as a measure of living cells.

Data set [2] in a line: Metabolic stability evaluation, mouse liver microsome experiment. The format is in vitro ADME. To be noted: liver microsomes, pH 7.4, 1 μM compound, 0.5 mg/mL protein, 37° C.; for half-life at 1 μM: read-out: Mouse liver microsome experiment t1/2. The method, then:
(§1) Microsomal experiment: human liver microsomes: 0.5 mg/mL, Xenotech; rat liver microsomes: 0.5 mg/mL, Xenotech; mouse liver microsomes: 0.5 mg/mL, Xenotech; coenzyme (NADPH/NADH): 1 mM, Sigma Life Science; magnesium chloride: 5 mM, 100 mM phosphate buffer (pH 7.4).
(§2) Preparation of a stock solution: A certain amount of the powder of the example compounds was accurately weighed and dissolved in DMSO to a 5 mM concentration.
(§3) Preparation of phosphate buffer (100 mM, pH 7.4): 150 mL of a pre-prepared 0.5 M potassium dihydrogen phosphate and 700 mL of a pre-prepared 0.5 M dipotassium hydrogen phosphate were mixed. The mixture was then adjusted to pH 7.4 with a 0.5 M dipotassium hydrogen phosphate solution. The mixture was diluted 5-fold with ultrapure water before use, and magnesium chloride was added to obtain a phosphate buffer (100 mM) containing 100 mM potassium phosphate, 3.3 mM magnesium chloride, and a pH of 7.4.
(§4) A solution of NADPH regeneration system (containing 6.5 mM NADP, 16.5 mM G-6-P, 3 U/mL G-6-P D, 3.3 mM magnesium chloride) was prepared and placed on wet ice before use.
(§5) Preparation of a stop solution: an acetonitrile solution containing 50 ng/mL propranolol hydrochloride and 200 ng/mL tolbutamide (internal standard). 25057.5 μL of phosphate buffer (pH 7.4) was added into a 50 mL centrifuge tube, 812.5 μL of human liver microsomes, rat liver microsomes and mouse liver microsomes were then added into the 50 mL centrifuge tube, respectively, and the mixtures were mixed evenly to obtain liver microsome dilutions with a protein concentration of 0.625 mg/mL. Incubation of samples: The stock solutions of the corresponding compounds were diluted to 0.25 mM with an aqueous solution containing 70% acetonitrile, respectively, and used as working solutions ready for use. 398 μL of dilutions of human liver microsomes or rat liver microsomes or mouse liver microsome were added to 96-well incubation plates (N=2), and then 2 μL of 0.25 mM working solutions were added and mixed, respectively.
(§6) Determination of metabolic stability: 300 μL of a pre-cooled stop solution was added to each well of a 96-well deep well plate and placed on ice as a stop plate. The 96-well incubation plate and the NADPH regeneration system were placed in a 37° C. water bath, shaken at 100 rpm, and pre-incubated for 5 min. 80 μL of an incubation solution was taken from each well of the incubation plate and added to the stop plate, mixed evenly, and replenished with 20 μL of NADPH regeneration system solution as a 0 min sample. 80 μL of NADPH regeneration system solution was then added to each well of the incubation plate to start the reaction, and timing was started. […] 100 μL of the reaction solution was taken at 10, 30, and 90 min after reaction, respectively, added to the stop plate, and vortexed for 3 minutes to terminate the reaction. The stop plate was centrifuged for 10 min at 5000×g at 4° C. 100 μL of the supernatant was added to a 96-well plate to which 100 μL of distilled water was previously added, mixed evenly, and analyzed by LC-MS/MS.
(§7) Data analysis: The peak areas of the corresponding compounds and internal standard were detected by LC-MS/MS system, and the ratio of the peak areas of the compounds to the internal standard was calculated.
A general note: Microsomes from liver hold many membrane-bound enzymes, among them those of drug oxidation.

The subject of data set [3] is BaF3-EpoR-JAK2 cells. The experiment in a line: Cytotoxicity assay, BaF3-EpoR-JAK2 cells (CellTiter-Glo). The format is cell-based. As to conditions: 72 h; 3 days incubation, 1 ng/ml IL-3, CellTiter-Glo. The method, then: The inhibitory effects of example compounds on the activity of BaF3-EpoR-JAK2 and BaF3-EpoR-JAK2/V617F cells were determined.
Materials and reagents: RPMI-1640 medium (GIBCO, Cat. No. A10491-01), fetal bovine serum (GIBCO, Cat. No. 10099-141), antibiotics (GIBCO, Cat. No. 10010-031), IL-3 (CST, Cat. No. 8923SF), phosphate buffer solution PBS (GIBCO, Cat. No. 10010-0312), penicillin-streptomycin (GIBCO, Cat. No. 15140-122);
Cell lines: BaF3-EpoR-JAK2 cells (Pharmaron), BaF3-EpoR-JAK2/V617F cells (Pharmaron), live cell assay kit CellTiter-Glo4 (Promega, Cat. No. G7572), 96-well black-wall clear flat-bottom cell culture plate (Corning, Cat. No. 3340).
Assay method: 1. Preparation of cell plates. BaF3-EpoR-JAK2 cells and BaF3-EpoR-JAK2/V617F cells were seeded in 96-well plates, respectively, and 1 ng/ml IL-3 was added to Ba/F3 cells. The cell plates were placed in a carbon dioxide incubator for overnight culture. 2. The test compounds were dissolved in DMSO and subjected to 3-fold gradient dilution, 9 compound concentrations were obtained in duplicate. 3. Treatments of Cells with Compounds. The compounds were transferred to cell plates, and the starting concentration of the compounds is 10 μM. The cell plates were incubated in a carbon dioxide incubator for 3 days. 4. Detection. A CellTiter-Glo reagent was added to the cell plates and incubated for 30 minutes at room temperature to stabilize the luminescence signal. Reading was obtained using a PerkinElmer Envision multi-label analyzer.

Data set [4] is described as follows: Rat pharmacokinetic experiment. The format is in vivo. To be noted: male Sprague-Dawley rats, single dose 3 mg/kg intravenously, 10 mg/kg orally. The protocol:
6 male Sprague-Dawley rats (7-8 weeks old, and weighted approximately 210 g) were divided into 2 groups with 3 rats in each group. The rats were intravenously or orally administered a single dose of compound (3 mg/kg intravenously, 10 mg/kg orally) to compare pharmacokinetic differences.
The rats were raised on standard food and water. Fasting was started 16 hours before the test. The drug was dissolved with PEG400 and dimethyl sulfoxide. The blood samples were collected from eyelids at the time points of 0.083 hours, 0.25 hours, 0.5 hours, 1 hour, 2 hours, 4 hours, 6 hours, 8 hours, 12 hours, and 24 hours after administration.
Rats were briefly anesthetized after inhalation of diethyl ether and 300 μL of blood sample was collected from the eyelids into test tubes. There was 30 μL of 1% heparin salt solution in the test tube. Tubes were dried at 60° C. overnight before use. After the blood sample was collected at the last time point, the rats were sacrificed after ether anesthesia.
Immediately after the collection of the blood sample, the test tube was gently inverted at least 5 times to ensure sufficient mixing and then placed on ice. […] The concentration of the compound disclosed herein in plasma was determined by LC-MS/MS. The pharmacokinetic parameters were calculated based on the drug concentration in blood of each animal at different time points.

Data set [5] in a line: Metabolic stability evaluation, rat liver microsome experiment. It is filed as in vitro ADME. As to conditions: liver microsomes, pH 7.4, 1 μM compound, 0.5 mg/mL protein, 37° C.; for half-life at 1 μM: read-out: Rat liver microsome experiment t1/2. The protocol: as §1, §2, §3, §4, §5, §6, §7
The nature of data set [6]: Metabolic stability evaluation, human liver microsome experiment. The format is in vitro ADME. To be noted: liver microsomes, pH 7.4, 1 μM compound, 0.5 mg/mL protein, 37° C.; for half-life at 1 μM: read-out: Human liver microsome experiment t1/2. The method, then:
as §1, §2, §3, §4, §5, §6, §7

As to `[2H]c1nc(Nc2ccc(OCCN3CCCC3)cc2)nc(Nc2cccc(S(=O)(=O)NC(C)(C)C)c2)c1C([2H])([2H])[2H]` [Compound T-2, N-(tert-butyl)-3-((5-(methyl-d3)-2-((4-(2-(pyrrolidin-1-yl)ethoxy)phenyl)amino)pyrimidin-4-yl-6-d)amino)benzenesulfonamide], in data set [1], the pIC50 (commonly the negative decadic logarithm of the IC50, by convention in mol/L) is 6.71. Also, in data set [2], the intrinsic clearance (microsomal CLint) (as a rule, the capacity of the preparation to metabolise the compound, expressed as a volume cleared per time) at 1 μM came to 174 µL/min/mg and the half-life at 1 μM was determined as 8 min. This compound had a pIC50 in data set [3] of 6.14.

`[2H]C1([2H])N(CCOc2ccc(Nc3ncc(C)c(Nc4cccc(S(=O)(=O)NC(C)(C)C)c4)n3)cc2)C([2H])([2H])C([2H])([2H])C1([2H])[2H]` [Compound T-5, N-(tert-butyl)-3-((5-methyl-2-((4-(2-(pyrrolidin-1-yl-d8)ethoxy)phenyl)amino)pyrimidin-4-yl)amino)benzenesulfonamide] registered an Oral availability in data set [4] of 7.48%. Further, the pIC50 is 6.57 in data set [1] and 6.16 in data set [3]. The microsomal CLint at 1 μM in data set [2] turned out to be 158 µL/min/mg; in data set [5], 77 µL/min/mg; in data set [6] it was 11.5 µL/min/mg. Moreover, the half-life at 1 μM is 8.8 min in data set [2], 18 min in data set [5] and 121 min in data set [6].

For `[2H]C([2H])([2H])C(C)(NS(=O)(=O)c1cccc(Nc2nc(Nc3ccc(OCCN4CCCC4)cc3)ncc2C)c1)C([2H])([2H])[2H]` [Compound T-3, 3-((5-methyl-2-((4-(2-(pyrrolidin-1-yl)ethoxy)phenyl)amino)pyrimidin-4-yl)amino)-N-(2-methylpropan-2-yl-1,1,1,3,3,3-d6)benzenesulfonamide], the results for the pIC50 in data set [1] and in data set [3] were 6.61 and 6.22, respectively. Further, the microsomal CLint at 1 μM was determined as 206 µL/min/mg in data set [2] and 80.4 µL/min/mg in data set [5]. Besides, the figures for the half-life at 1 μM in data set [2] and in data set [5] were 6.7 min and 17.2 min, respectively.

Regarding `[2H]C([2H])(Oc1ccc(Nc2ncc(C)c(Nc3cccc(S(=O)(=O)NC(C)(C)C)c3)n2)cc1)C([2H])([2H])N1CCCC1` [Compound T-1, N-(tert-butyl)-3-((5-methyl-2-((4-(2-(pyrrolidin-1-yl)ethoxy-1,1,2,2-d4)phenyl)amino)pyrimidin-4-yl)amino)benzenesulfonamide], the pIC50 was 6.69 in data set [1] and 6.27 in data set [3]. The microsomal CLint at 1 μM in data set [2] stood at 157 µL/min/mg; in data set [5], 73.9 µL/min/mg; in data set [6], 6.8 µL/min/mg. Further, the figures for the half-life at 1 μM in data set [2], in data set [5] and in data set [6] were 8.8 min, 18.7 min and 203 min, respectively.

For the compound `[2H]C([2H])([2H])C(NS(=O)(=O)c1cccc(Nc2nc(Nc3ccc(OCCN4CCCC4)cc3)ncc2C)c1)(C([2H])([2H])[2H])C([2H])([2H])[2H]` [Compound T-4, 3-((5-methyl-2-((4-(2-(pyrrolidin-1-yl)ethoxy)phenyl)amino)pyrimidin-4-yl)amino)-N-(2-(methyl-d3)propan-2-yl-1,1,1,3,3,3-d6)benzenesulfonamide], the pIC50 in data set [1] was 6.62; in data set [3] it was 6.23. Moreover, the values for the microsomal CLint at 1 μM in data set [2] and in data set [5] were 194 µL/min/mg and 76.6 µL/min/mg, respectively. Further, the half-life at 1 μM was found to be 7.1 min in data set [2] and 18.1 min in data set [5].

In the case of `Cc1cnc(Nc2ccc(OCCN3CCCC3)cc2)nc1Nc1cccc(S(=O)(=O)NC(C)(C)C)c1` [Fedratinib, N-(tert-butyl)-3-((5-methyl-2-((4-(2-(pyrrolidin-1-yl)ethoxy)phenyl)amino)pyrimidin-4-yl)amino)benzenesulfonamide, reference compound], in data set [4], the Oral availability came out at 7.24%. Also, the negative-log IC50 (pIC50) in data set [1] was 6.68; in data set [3], 6.19. Moreover, the figures for the microsomal CLint at 1 μM in data set [2], in data set [5] and in data set [6] were 238 µL/min/mg, 81.3 µL/min/mg and 12.5 µL/min/mg, respectively. In addition, the half-life at 1 μM worked out at 5.8 min in data set [2], 17 min in data set [5] and 111 min in data set [6].
